Experimental data: patent US10941157B2, “Pesticidal compositions and uses thereof” (Gilead Apollo, LLC, priority 2015, dated 2021)
In brackets after ≈: the same amount, converted by molar mass. Read-outs that look alike come from different tables or passages of the source.

Tests used:
Format in all cases: cell-based
Rhizoctonia solani (Rs) = test: In vitro pathogen growth inhibition assay, Rs (mycelial plugs); settings: Rhizoctonia solani, 48 h
Procedure, shortened: (§1)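 Spores in 17% V8 liquid medium, or 1.5 mm Rs mycelial plugs in ¼ PDB, incubated with compound; final concentration checked by OD600 for precipitation. OD readings at 24 and 48 h, blank-subtracted, plus visual ratings; value is concentration giving ≥90% growth inhibition.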

[1] = tested on: Phytophthora capsici (Pc); test: In vitro pathogen growth inhibition assay, Pc; settings: 48 h
Procedure, shortened: as §1

[2] = tested on: Fusarium virguliforme (Fv); test: In vitro pathogen growth inhibition assay, Fv
Procedure, shortened: as §1

Septoria tritici (St) = test: In vitro pathogen growth inhibition assay, St; settings: Zymoseptoria tritici, 48 h
Procedure, shortened: (§2)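 Value reported is the compound concentration reaching ≥90% growth inhibition, from OD readings at 24 and 48 h after blank subtraction, confirmed visually. Inoculum was spores diluted in 17% V8 medium, except Rs, using 1.5 mm mycelial plugs in ¼ PDB; actual compound concentration corrected via OD600.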

Botrtyis cinerea (Bc) = test: In vitro pathogen growth inhibition assay, Bc; settings: 48 h
Procedure, shortened: as §2

[3] = tested on: Collectotrichum graminicola (Cg); test: In vitro pathogen growth inhibition assay, Cg; settings: 48 h
Procedure, shortened: as §2

[4] = tested on: Fusarium moniliforme (Fm); test: In vitro pathogen growth inhibition assay, Fm; settings: Fusarium verticillioides
Procedure, shortened: as §2

Diplodia maydis (Dm) = test: In vitro pathogen growth inhibition assay, Dm; settings: Stenocarpella maydis, 48 h
Procedure, shortened: as §1

[5] = ≥90% growth inhibition, mycelial plugs, 48 hours, vs 2% DMSO control, read-out: Compound Concentration (ppm) sufficient for ≥90% inhibition of Rs
[6] = ≥90% growth inhibition, 48 hours, vs 2% DMSO control, read-out: Compound Concentration (ppm) sufficient for ≥90% inhibition of Pc
[7] = ≥90% growth inhibition, 48 hours, vs 2% DMSO control, read-out: Compound Concentration (ppm) sufficient for ≥90% inhibition of Fv
[8] = ≥90% growth inhibition, 48 hours, vs 2% DMSO control, read-out: Compound Concentration (ppm) sufficient for ≥90% inhibition of St
[9] = ≥90% growth inhibition, 48 hours, vs 2% DMSO control, read-out: Compound Concentration (ppm) sufficient for ≥90% inhibition of Bc
[10] = ≥90% growth inhibition, 48 hours, vs 2% DMSO control, read-out: Compound Concentration (ppm) sufficient for ≥90% inhibition of Cg
[11] = ≥90% growth inhibition, 48 hours, vs 2% DMSO control, read-out: Compound Concentration (ppm) sufficient for ≥90% inhibition of Fm
[12] = ≥90% growth inhibition, 48 hours, vs 2% DMSO control, read-out: Compound Concentration (ppm) sufficient for ≥90% inhibition of Dm
[13] = concentration sufficient to ≥90% inhibition of growth, 48 hours vs 2% DMSO control, read-out: Compound Concentration (ppm) for ≥90% inhibition, Rs
[14] = concentration sufficient to ≥90% inhibition of growth, 48 hours vs 2% DMSO control, read-out: Compound Concentration (ppm) for ≥90% inhibition, Pc
[15] = concentration sufficient to ≥90% inhibition of growth, 48 hours vs 2% DMSO control, read-out: Compound Concentration (ppm) for ≥90% inhibition, Fv
[16] = concentration sufficient to ≥90% inhibition of growth, 48 hours vs 2% DMSO control, read-out: Compound Concentration (ppm) for ≥90% inhibition, St
[17] = concentration sufficient to ≥90% inhibition of growth, 48 hours vs 2% DMSO control, read-out: Compound Concentration (ppm) for ≥90% inhibition, Bc
[18] = concentration sufficient to ≥90% inhibition of growth, 48 hours vs 2% DMSO control, read-out: Compound Concentration (ppm) for ≥90% inhibition, Cg
[19] = concentration sufficient to ≥90% inhibition of growth, 48 hours vs 2% DMSO control, read-out: Compound Concentration (ppm) for ≥90% inhibition, Fm
[20] = concentration sufficient to ≥90% inhibition of growth, 48 hours vs 2% DMSO control, read-out: Compound Concentration (ppm) for ≥90% inhibition, Dm

| Structure (SMILES) | IC90 (Rhizoctonia solani (Rs); [5]) [µg/mL] | IC90 [1, 6] [µg/mL] | IC90 [2, 7] [µg/mL] | IC90 (Septoria tritici (St); [8]) [µg/mL] | IC90 (Botrtyis cinerea (Bc); [9]) [µg/mL] | IC90 [3, 10] [µg/mL] | IC90 [4, 11] [µg/mL] | IC90 (Diplodia maydis (Dm); [12]) [µg/mL] | IC90 (Rhizoctonia solani (Rs); [13]) [µg/mL] | IC90 [1, 14] [µg/mL] | IC90 [2, 15] [µg/mL] | IC90 (Septoria tritici (St); [16]) [µg/mL] | IC90 (Botrtyis cinerea (Bc); [17]) [µg/mL] | IC90 [3, 18] [µg/mL] | IC90 [4, 19] [µg/mL] | IC90 (Diplodia maydis (Dm); [20]) [µg/mL] |
| --- | --- | --- | --- | --- | --- | --- | --- | --- | --- | --- | --- | --- | --- | --- | --- | --- |
| CCOC(=O)c1sc2c(c1C)c(=O)n(C(C)(C)C(N)=O)c(=O)n2C[C@H](OCCC#N)c1cc(F)ccc1OC [Compound I-180] | 10 (≈ 17.8 µM) | > 50 | 10 (≈ 17.8 µM) | > 50 | 2 (≈ 3.57 µM) | 50 (≈ 89.2 µM) | 0.4 (≈ 0.714 µM) | > 50 | – | – | – | – | – | – | – | – |
| CCOC(=O)c1sc2c(c1C)c(=O)n(C(C)(C)C(=O)N1CCCC1)c(=O)n2C[C@H](OCCC#N)c1cc(F)ccc1OC [Compound I-182] | 0.4 (≈ 0.651 µM) | > 50 | 2 (≈ 3.25 µM) | > 50 | 2 (≈ 3.25 µM) | 2 (≈ 3.25 µM) | 0.08 (≈ 0.13 µM) | 2 (≈ 3.25 µM) | – | – | – | – | – | – | – | – |
| CCOC(=O)c1sc2c(c1C)c(=O)n(C(C)(C)C(N)=O)c(=O)n2C[C@H](OCCO)c1cc(F)ccc1OC [Compound I-183] | 2 (≈ 3.63 µM) | > 50 | 50 (≈ 90.6 µM) | > 50 | 10 (≈ 18.1 µM) | > 50 | 2 (≈ 3.63 µM) | > 50 | – | – | – | – | – | – | – | – |
| COc1ccc(F)cc1[C@@H](O)Cn1c(=O)n(C(C)(C)C(=O)NC(C)C)c(=O)c2c(C)c(-n3cccn3)sc21 [Compound I-187] | 0.4 (≈ 0.736 µM) | ≥ 50 | 0.4 (≈ 0.736 µM) | > 50 | 2 (≈ 3.68 µM) | 10 (≈ 18.4 µM) | 0.4 (≈ 0.736 µM) | 10 (≈ 18.4 µM) | – | – | – | – | – | – | – | – |
| COc1ccc(F)cc1[C@H](Cn1c(=O)n(C(C)(C)C(N)=O)c(=O)c2c(C)c(-n3cccn3)sc21)OCCC#N [Compound I-190] | – | – | – | – | – | – | – | – | 10 (≈ 18 µM) | > 50 | 50 (≈ 90.2 µM) | > 50 | 10 (≈ 18 µM) | > 50 | 10 (≈ 18 µM) | > 50 |
| COc1ccc(F)cc1[C@H](Cn1c(=O)n(C(C)(C)C(=O)N2CCCC2)c(=O)c2c(C)c(-n3cccn3)sc21)OCCC#N [Compound I-194] | 10 (≈ 16.4 µM) | > 50 | ≥ 10 | > 50 | 10 (≈ 16.4 µM) | 50 (≈ 82.1 µM) | 2 (≈ 3.29 µM) | 50 (≈ 82.1 µM) | – | – | – | – | – | – | – | – |
| COc1ccc(F)cc1[C@H](Cn1c(=O)n(C(C)(C)C(=O)N2CCCC2)c(=O)c2c(C)c(-n3nccn3)sc21)OCCC#N [Compound I-195] | 2 (≈ 3.28 µM) | > 50 | 2 (≈ 3.28 µM) | > 50 | 2 (≈ 3.28 µM) | 2 (≈ 3.28 µM) | 2 (≈ 3.28 µM) | ≥ 2 | – | – | – | – | – | – | – | – |

Now from value to compound:

| IC90 (Rhizoctonia solani (Rs); [5]) [µg/mL] | IC90 [1, 6] [µg/mL] | IC90 [2, 7] [µg/mL] | IC90 (Septoria tritici (St); [8]) [µg/mL] | IC90 (Botrtyis cinerea (Bc); [9]) [µg/mL] | IC90 [3, 10] [µg/mL] | IC90 [4, 11] [µg/mL] | IC90 (Diplodia maydis (Dm); [12]) [µg/mL] | IC90 (Rhizoctonia solani (Rs); [13]) [µg/mL] | IC90 [1, 14] [µg/mL] | IC90 [2, 15] [µg/mL] | IC90 (Septoria tritici (St); [16]) [µg/mL] | IC90 (Botrtyis cinerea (Bc); [17]) [µg/mL] | IC90 [3, 18] [µg/mL] | IC90 [4, 19] [µg/mL] | IC90 (Diplodia maydis (Dm); [20]) [µg/mL] | Structure (SMILES) |
| --- | --- | --- | --- | --- | --- | --- | --- | --- | --- | --- | --- | --- | --- | --- | --- | --- |
| 2 (≈ 3.38 µM) | > 50 | 2 (≈ 3.38 µM) | > 50 | 2 (≈ 3.38 µM) | 10 (≈ 16.9 µM) | 0.4 (≈ 0.676 µM) | 10 (≈ 16.9 µM) | – | – | – | – | – | – | – | – | COc1ccccc1[C@H](Cn1c(=O)n(C(C)(C)C(=O)N2CCCC2)c(=O)c2c(C)c(-n3nccn3)sc21)OCCC#N [Compound I-196] |
| 0.4 (≈ 0.685 µM) | > 50 | ≥ 2 | ≥ 50 | 0.4 (≈ 0.685 µM) | 10 (≈ 17.1 µM) | 0.4 (≈ 0.685 µM) | 10 (≈ 17.1 µM) | – | – | – | – | – | – | – | – | COc1ccc(F)cc1[C@H](Cn1c(=O)n([C@@H](C)C(=O)NC(C)C)c(=O)c2c(C)c(-n3nccn3)sc21)OCCC#N [Compound I-197] |
| – | – | – | – | – | – | – | – | 50 (≈ 92.3 µM) | > 50 | 10 (≈ 18.5 µM) | > 50 | 10 (≈ 18.5 µM) | 50 (≈ 92.3 µM) | 10 (≈ 18.5 µM) | 50 (≈ 92.3 µM) | COc1ccc(F)cc1[C@H](Cn1c(=O)n([C@@H](C)C(N)=O)c(=O)c2c(C)c(-n3nccn3)sc21)OCCC#N [Compound I-199] |
| 2 (≈ 3.69 µM) | > 50 | 2 (≈ 3.69 µM) | > 50 | 2 (≈ 3.69 µM) | > 50 | 2 (≈ 3.69 µM) | > 50 | – | – | – | – | – | – | – | – | COc1ccc(F)cc1[C@H](Cn1c(=O)n([C@H](C)C(N)=O)c(=O)c2c(C)c(-n3nccn3)sc21)OCCC#N [Compound I-200] |
